Data: ChEMBL document CHEMBL3585305, “Structure-Based Design and Optimization of Multitarget-Directed 2H-Chromen-2-one Derivatives as Potent Inhibitors of Monoamine Oxidase B and Cholinesterases” (J Med Chem, 2015)
The source made the active and inactive calls. The calls are words filed in the database; no cut-off is given here.

Experiments:
[1] = biological target: T1, Amine oxidase [flavin-containing] A (Rattus norvegicus, UniProt P21396); assay: Inhibition of rat brain MAO-A using kynuramine substrate […] by spectrophotometric assay
T1 sequence (P21396 whole entry): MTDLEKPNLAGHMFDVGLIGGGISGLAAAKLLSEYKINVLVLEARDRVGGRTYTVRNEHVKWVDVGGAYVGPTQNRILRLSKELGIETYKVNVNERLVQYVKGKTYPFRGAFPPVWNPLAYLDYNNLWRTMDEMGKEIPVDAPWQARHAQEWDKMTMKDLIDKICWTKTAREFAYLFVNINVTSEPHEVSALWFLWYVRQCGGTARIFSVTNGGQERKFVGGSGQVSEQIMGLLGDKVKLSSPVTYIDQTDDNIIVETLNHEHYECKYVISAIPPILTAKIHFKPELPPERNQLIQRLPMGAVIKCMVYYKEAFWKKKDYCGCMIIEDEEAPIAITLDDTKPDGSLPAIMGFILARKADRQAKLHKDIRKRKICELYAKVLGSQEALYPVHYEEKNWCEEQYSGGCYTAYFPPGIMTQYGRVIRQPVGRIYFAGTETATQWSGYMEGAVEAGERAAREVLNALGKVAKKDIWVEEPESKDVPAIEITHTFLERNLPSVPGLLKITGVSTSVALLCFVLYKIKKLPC

[2] = biological target: T2, Amine oxidase [flavin-containing] B (Rattus norvegicus, UniProt P19643); assay: Inhibition of rat brain MAO-B using kynuramine substrate […] by spectrophotometric assay
T2 sequence (P19643 whole entry): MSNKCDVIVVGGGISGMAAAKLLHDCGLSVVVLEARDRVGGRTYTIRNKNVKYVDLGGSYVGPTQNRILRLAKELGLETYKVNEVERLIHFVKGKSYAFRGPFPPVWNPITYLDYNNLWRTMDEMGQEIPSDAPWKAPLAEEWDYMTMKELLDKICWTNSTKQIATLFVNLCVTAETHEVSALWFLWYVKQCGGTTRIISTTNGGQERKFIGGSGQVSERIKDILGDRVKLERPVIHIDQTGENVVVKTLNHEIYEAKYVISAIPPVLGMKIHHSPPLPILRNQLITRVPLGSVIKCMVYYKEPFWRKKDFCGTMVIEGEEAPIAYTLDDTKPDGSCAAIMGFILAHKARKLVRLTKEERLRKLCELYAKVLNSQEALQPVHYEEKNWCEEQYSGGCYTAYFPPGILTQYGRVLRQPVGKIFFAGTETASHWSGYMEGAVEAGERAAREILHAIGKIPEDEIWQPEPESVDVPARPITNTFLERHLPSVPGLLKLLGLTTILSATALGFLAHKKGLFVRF

Acetylcholinesterase [3] = biological target: T3, Acetylcholinesterase (Electrophorus electricus, UniProt O42275); assay: Inhibition of electric eel AChE by spectrophotometric Ellman's method
T3 sequence (O42275 whole entry): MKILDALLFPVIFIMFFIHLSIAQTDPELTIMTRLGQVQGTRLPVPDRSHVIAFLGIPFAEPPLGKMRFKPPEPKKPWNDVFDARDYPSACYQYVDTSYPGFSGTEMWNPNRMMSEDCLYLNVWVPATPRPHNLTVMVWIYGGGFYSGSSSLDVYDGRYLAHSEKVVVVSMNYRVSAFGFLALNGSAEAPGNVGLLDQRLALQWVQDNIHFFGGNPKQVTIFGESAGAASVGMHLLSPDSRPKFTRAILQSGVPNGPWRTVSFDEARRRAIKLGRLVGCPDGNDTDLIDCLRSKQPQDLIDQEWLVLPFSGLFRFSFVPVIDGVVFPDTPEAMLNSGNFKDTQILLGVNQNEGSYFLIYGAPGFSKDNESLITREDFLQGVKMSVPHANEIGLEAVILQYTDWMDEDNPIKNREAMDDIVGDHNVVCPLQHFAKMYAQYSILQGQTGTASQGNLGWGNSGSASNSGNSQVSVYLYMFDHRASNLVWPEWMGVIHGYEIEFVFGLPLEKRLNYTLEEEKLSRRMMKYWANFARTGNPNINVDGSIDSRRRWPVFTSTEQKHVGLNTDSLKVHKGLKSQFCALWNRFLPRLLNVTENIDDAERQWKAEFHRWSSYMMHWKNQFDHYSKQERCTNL

Cholinesterase [4] = biological target: Cholinesterase (Equus caballus, UniProt P81908); assay: Inhibition of equine serum BuChE by spectrophotometric Ellman's method
Chain of Cholinesterase (Equus caballus, UniProt P81908) (P81908 whole entry): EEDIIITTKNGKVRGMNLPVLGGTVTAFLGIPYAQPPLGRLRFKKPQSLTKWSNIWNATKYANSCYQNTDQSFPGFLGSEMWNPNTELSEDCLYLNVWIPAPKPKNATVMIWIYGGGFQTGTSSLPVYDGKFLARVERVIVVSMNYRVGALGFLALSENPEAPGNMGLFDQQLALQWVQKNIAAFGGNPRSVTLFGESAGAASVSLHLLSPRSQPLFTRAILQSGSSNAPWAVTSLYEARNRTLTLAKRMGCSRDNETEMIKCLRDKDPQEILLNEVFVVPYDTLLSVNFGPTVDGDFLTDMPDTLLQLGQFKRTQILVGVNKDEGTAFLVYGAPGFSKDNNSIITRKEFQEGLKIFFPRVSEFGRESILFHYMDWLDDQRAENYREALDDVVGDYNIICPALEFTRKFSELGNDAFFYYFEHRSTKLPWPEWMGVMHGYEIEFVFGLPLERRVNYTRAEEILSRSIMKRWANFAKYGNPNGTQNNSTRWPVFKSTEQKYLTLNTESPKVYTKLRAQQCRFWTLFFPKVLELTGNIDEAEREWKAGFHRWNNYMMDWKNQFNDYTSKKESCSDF

[5] = biological target: T4, Amine oxidase [flavin-containing] A (Homo sapiens, UniProt P21397); assay: Inhibition of human recombinant MAO-A using kynuramine substrate by spectrophotometric assay
T4 sequence (P21397 whole entry): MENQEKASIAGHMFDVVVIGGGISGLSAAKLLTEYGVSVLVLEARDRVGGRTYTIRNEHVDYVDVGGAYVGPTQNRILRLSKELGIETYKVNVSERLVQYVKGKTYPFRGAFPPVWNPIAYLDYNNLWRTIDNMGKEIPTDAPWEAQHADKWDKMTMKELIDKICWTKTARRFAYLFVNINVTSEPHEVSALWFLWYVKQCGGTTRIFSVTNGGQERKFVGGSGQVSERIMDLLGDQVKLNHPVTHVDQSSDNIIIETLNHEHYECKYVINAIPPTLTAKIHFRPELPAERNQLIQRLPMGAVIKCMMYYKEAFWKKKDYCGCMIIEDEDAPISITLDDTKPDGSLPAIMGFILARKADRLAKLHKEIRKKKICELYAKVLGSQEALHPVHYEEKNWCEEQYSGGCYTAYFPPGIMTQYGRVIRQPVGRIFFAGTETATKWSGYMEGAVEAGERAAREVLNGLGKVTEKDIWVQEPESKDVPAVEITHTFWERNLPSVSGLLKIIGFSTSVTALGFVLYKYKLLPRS

[6] = biological target: T5, Amine oxidase [flavin-containing] B (Homo sapiens, UniProt P27338)
T5 sequence (P27338 whole entry): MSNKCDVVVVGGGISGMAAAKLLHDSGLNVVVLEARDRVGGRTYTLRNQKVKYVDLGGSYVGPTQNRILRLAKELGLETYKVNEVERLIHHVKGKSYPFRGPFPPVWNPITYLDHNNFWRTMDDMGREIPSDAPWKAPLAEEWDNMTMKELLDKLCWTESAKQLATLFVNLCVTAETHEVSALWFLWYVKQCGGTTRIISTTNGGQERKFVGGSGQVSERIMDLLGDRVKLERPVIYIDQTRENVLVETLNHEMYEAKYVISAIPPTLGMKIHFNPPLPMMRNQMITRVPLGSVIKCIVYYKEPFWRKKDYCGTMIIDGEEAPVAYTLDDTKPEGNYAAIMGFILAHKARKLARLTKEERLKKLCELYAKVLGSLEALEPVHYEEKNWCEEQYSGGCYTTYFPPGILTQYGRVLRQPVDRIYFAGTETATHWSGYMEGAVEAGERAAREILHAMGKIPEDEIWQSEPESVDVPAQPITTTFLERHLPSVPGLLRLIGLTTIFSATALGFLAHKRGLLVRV
Description: Inhibition of human recombinant MAO-B using kynuramine substrate by spectrophotometric assay

Acetylcholinesterase [7] = biological target: Acetylcholinesterase (Homo sapiens, UniProt P22303); assay: Inhibition of human recombinant AChE by spectrophotometric Ellman's method
Chain of Acetylcholinesterase (Homo sapiens, UniProt P22303) (P22303 whole entry): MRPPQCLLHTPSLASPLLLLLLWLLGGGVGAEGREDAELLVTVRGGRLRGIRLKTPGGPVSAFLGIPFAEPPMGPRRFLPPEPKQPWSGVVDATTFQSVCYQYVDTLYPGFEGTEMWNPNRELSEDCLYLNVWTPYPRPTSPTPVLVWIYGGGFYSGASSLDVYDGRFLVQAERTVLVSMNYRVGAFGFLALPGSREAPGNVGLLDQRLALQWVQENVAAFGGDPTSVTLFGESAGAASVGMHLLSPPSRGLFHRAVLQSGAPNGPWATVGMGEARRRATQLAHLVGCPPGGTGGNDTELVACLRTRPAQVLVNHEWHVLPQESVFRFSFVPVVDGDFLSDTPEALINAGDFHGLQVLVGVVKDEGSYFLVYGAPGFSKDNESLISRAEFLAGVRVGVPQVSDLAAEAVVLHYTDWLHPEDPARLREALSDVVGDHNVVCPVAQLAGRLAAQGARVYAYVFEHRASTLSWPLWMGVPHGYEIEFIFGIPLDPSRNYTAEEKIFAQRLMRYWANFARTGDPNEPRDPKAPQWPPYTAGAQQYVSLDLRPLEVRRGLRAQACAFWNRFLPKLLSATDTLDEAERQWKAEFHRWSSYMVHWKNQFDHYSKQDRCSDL

Cholinesterase [8] = biological target: T6, Cholinesterase (Homo sapiens, UniProt P06276); assay: Inhibition of human serum BuChE by spectrophotometric Ellman's method
T6 sequence (P06276 whole entry): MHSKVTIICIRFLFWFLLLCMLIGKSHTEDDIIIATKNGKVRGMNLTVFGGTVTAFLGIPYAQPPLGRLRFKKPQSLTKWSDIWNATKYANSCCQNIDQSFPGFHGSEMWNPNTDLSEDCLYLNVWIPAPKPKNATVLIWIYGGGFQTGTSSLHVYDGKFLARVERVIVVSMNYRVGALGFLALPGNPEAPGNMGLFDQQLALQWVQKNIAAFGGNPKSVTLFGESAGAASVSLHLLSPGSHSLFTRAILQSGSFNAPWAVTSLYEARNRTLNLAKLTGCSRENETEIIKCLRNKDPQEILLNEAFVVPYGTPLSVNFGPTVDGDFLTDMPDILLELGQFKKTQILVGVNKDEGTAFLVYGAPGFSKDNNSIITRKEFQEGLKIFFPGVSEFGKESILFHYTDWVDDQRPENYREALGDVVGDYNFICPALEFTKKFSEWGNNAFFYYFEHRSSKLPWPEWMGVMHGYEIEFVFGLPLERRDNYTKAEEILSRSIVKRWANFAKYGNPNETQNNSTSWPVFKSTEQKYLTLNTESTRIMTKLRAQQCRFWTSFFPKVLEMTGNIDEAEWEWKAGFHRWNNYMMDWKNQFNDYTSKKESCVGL

Rattus norvegicus = organism: Rattus norvegicus; assay: Selectivity index, ratio of IC50 for rat brain MAO-A to IC50 for rat brain MAO-B
Acetylcholinesterase [9] = biological target: T3, Acetylcholinesterase; assay: Mixed type inhibition of electric eel AChE by Lineweaver-Burk plot
[10] = biological target: T1, Amine oxidase [flavin-containing] A; assay: Inhibition of rat brain MAO-A using kynuramine substrate […] at 10 uM by spectrophotometric assay
MDR1 [11] = assay: Apparent permeability from apical to basolateral side in MDCK2 cells expressing MDR1 at 200 ug/ml by UV-visible spectroscopy; assay type: ADME, cell-based, Canis lupus familiaris, MDCK-II; settings: dog, MDCK-MDR1
MDR1 [12] = assay: Apparent permeability from basolateral to apical side in MDCK2 cells expressing MDR1 at 200 ug/ml by UV-visible spectroscopy; assay type: ADME, cell-based, Canis lupus familiaris, MDCK-II; settings: dog, MDCK-MDR1
MDR1 [13] = assay: Efflux ratio of apparent permeability from basolateral to apical side to apical to basolateral side in MDCK2 cells expressing MDR1 at 200 ug/ml by UV-visible spectroscopy; assay type: ADME, cell-based, Canis lupus familiaris, MDCK-II; settings: dog, MDCK-MDR1
SH-SY5Y [14] = assay: Neuroprotective activity in human SH-SY5Y cells assessed as inhibition H2O2-induced reduction of cell survival at 1 uM after 24 hrs by MTT assay; assay type: functional, cell-based
SH-SY5Y [15] = assay: Neuroprotective activity in human SH-SY5Y cells assessed as inhibition H2O2-induced reduction of cell survival at 10 uM after 24 hrs by MTT assay; assay type: functional, cell-based
[16] = biological target: T2, Amine oxidase [flavin-containing] B; assay: Inhibition of rat brain MAO-B using kynuramine substrate […] at 10 uM by spectrophotometric assay
Cholinesterase [17] = biological target: T6, Cholinesterase; assay: Inhibition of human serum BuChE at 10 uM by spectrophotometric Ellman's method
[18] = biological target: T4, Amine oxidase [flavin-containing] A; assay: Inhibition of human recombinant MAO-A using kynuramine substrate at 10 uM by spectrophotometric assay
[19] = biological target: T4, Amine oxidase [flavin-containing] A; assay: Inhibition of human recombinant MAO-A using kynuramine substrate at 4 uM by spectrophotometric assay
[20] = biological target: Cholinesterase (Equus caballus) (UniProt P81908); assay: Inhibition of equine serum BuChE at 10 uM by spectrophotometric Ellman's method
Chain of Cholinesterase (Equus caballus) (P81908 whole entry): as the sequence (P81908 whole entry) above

[21] = biological target: T5, Amine oxidase [flavin-containing] B; assay: Inhibition of human recombinant MAO-B using kynuramine substrate at 10 uM by spectrophotometric assay

Compound | IC50 [2] | IC50 (Acetylcholinesterase [3]) | IC50 (Cholinesterase [4]) | IC50 [5] | IC50 [6] | IC50 (Acetylcholinesterase [7]) | inhibition at 10 µM [10] | inhibition at 10 µM [18] | further results
Cc1c(C)c2ccc(OCCCCCCN(C)Cc3ccccc3)cc2oc1=O | 1700 nM | 95 nM | 670 nM | 191 nM | 321 nM | 340 nM |  |  | IC50 [1]: 510 nM; IC50 (Cholinesterase [8]): 950 nM; Ratio IC50 (Rattus norvegicus): 0.3; Ki (Acetylcholinesterase [9]): 80 nM
CN(Cc1ccccc1)Cc1ccc(COc2ccc3c(CO)cc(=O)oc3c2)cc1.Cl |  |  |  |  |  |  | 0% |  | Papp A→B at 200 ug/ml (MDR1 [11]): 19.1 ×10⁻⁶ cm/s; Papp B→A at 200 ug/ml (MDR1 [12]): 33.8 ×10⁻⁶ cm/s; efflux ratio at 200 ug/ml (MDR1 [13]): 1.77; Activity (SH-SY5Y [14]): Active; Activity (SH-SY5Y [15]): Active
CCN(CC)Cc1cccc(COc2ccc3ccc(=O)oc3c2)c1 |  | 1700 nM | 6800 nM |  |  |  | 43% |  | inhibition at 10 µM [16]: 35%
CCN(CCCCCCOc1ccc2c(C)c(C)c(=O)oc2c1)Cc1ccccc1 | 720 nM | 320 nM | 490 nM | 115 nM | 18 nM | 440 nM |  |  | IC50 [1]: 2100 nM; Ratio IC50 (Rattus norvegicus): 3
CN(Cc1ccc(COc2ccc3c(CO)cc(=O)oc3c2)cc1)Cc1cccc(Cl)c1 | 240 nM | 250 nM | 630 nM | 13000 nM | 24 nM | 330 nM | 0% |  | inhibition (Cholinesterase [17]): 14%
CN(Cc1ccccc1)Cc1ccc(COc2ccc3cc(C#N)c(=O)oc3c2)cc1 |  | 200 nM | 5500 nM |  |  |  | 0% |  | inhibition at 10 µM [16]: 41%
Cc1c(C)c2ccc(OCCCCCNCc3ccccc3)cc2oc1=O | 500 nM | 940 nM | 1800 nM | 390 nM | 29 nM | 300 nM |  |  | IC50 [1]: 2200 nM; IC50 (Cholinesterase [8]): 950 nM
CN(Cc1ccc(C#N)cc1)Cc1ccc(COc2ccc3ccc(=O)oc3c2)cc1 | 270 nM | 5600 nM | 4400 nM |  | 45 nM | 6000 nM | 6% | 0% | 
CN(Cc1ccccc1)Cc1ccc(COc2ccc3ccc(=O)[nH]c3c2)cc1 |  | 490 nM | 1700 nM |  | 4500 nM | 1500 nM | 10% |  | inhibition at 10 µM [16]: 29%; inhibition at 4 µM [19]: 14%
CCN(CC)Cc1ccc(COc2ccc3ccc(=O)oc3c2)cc1 |  | 2900 nM | 3400 nM |  |  |  | 9% |  | inhibition at 10 µM [16]: 44%
Cc1c(C)c2ccc(OCCCN(C)Cc3ccccc3)cc2oc1=O | 330 nM | 1300 nM | 7800 nM |  | 134 nM | 1000 nM | 35% | 17% | 
Cc1cc(=O)oc2cc(OCc3ccc(CN(C)Cc4ccc(C#N)cc4)cc3)ccc12 | 410 nM | 3300 nM |  |  | 39 nM | 8500 nM | 10% | 39% | inhibition [20]: 29%
Cc1cc2ccc(OCc3ccc(CN(C)Cc4ccc(C#N)cc4)cc3)cc2oc1=O | 1700 nM | 7000 nM |  |  | 17 nM |  | 15% | 11% | inhibition [20]: 16%
COc1cc2c(cc1OC)C(=O)C(CC1CCN(Cc3ccccc3)CC1)C2 (stereo unspecified) [DONEPEZIL] |  |  |  |  |  |  |  | 0% | inhibition at 10 µM [21]: 0%
Cc1c(C)c2ccc(OCc3ccc(CN(C)Cc4ccccc4)cc3)cc2oc1=O | 1200 nM | 100 nM | 690 nM | 4300 nM | 53 nM | 450 nM | 0% |  | inhibition (Cholinesterase [17]): 46%
